For 19 compounds, IC50 results are on record in patent US9394297B2, “Amides as pim inhibitors” (AMGEN INC., priority 2012, dated 2016).

Where two headings read alike, the source gives them in different places. Some results are limits rather than exact numbers.

One assay addresses Pim-1 (Homo sapiens (Human), UniProt P11309). Description: Pim-Mn enzyme assay (HTRF, 384-well), Pim-1. The assay is classed as biochemical. The following applies: read-out: Pim-1-Mn IC50 IP. (Time-resolved FRET reads energy transfer from a long-lived donor to a nearby acceptor.)
Another assay has as its target Pim-2 (Homo sapiens (Human), UniProt Q9P1W9). Description: Pim-Mn enzyme assay (HTRF, 384-well), Pim-2. The assay is classed as biochemical. The following applies: read-out: Pim-2-Mn IC50 IP.
The subject of a further assay is KMS-12-BM cell lines. Description: KMS12 #2 flow cytometry assay (phospho-BAD Ser112). The assay is classed as cell-based. To be noted: Homo sapiens, 110 min, read-out: KMS-12-Flow IC50 IP.
[1] abbreviates: Pim-1 enzyme 5 pM, ATP 1.5 μM, BAD (S112) 0.5 μM, HTRF, 22-point curve.
Setting [2] is: Pim-2 enzyme 0.5 pM, ATP 1.5 μM, BAD (S112) 0.5 μM, HTRF, 22-point curve.
The mark [3] stands for this setting: KMS-12-BM cells, pBAD Ser112 by flow cytometry, 110 min with compound.

Pim-1, sequence (P11309 whole entry): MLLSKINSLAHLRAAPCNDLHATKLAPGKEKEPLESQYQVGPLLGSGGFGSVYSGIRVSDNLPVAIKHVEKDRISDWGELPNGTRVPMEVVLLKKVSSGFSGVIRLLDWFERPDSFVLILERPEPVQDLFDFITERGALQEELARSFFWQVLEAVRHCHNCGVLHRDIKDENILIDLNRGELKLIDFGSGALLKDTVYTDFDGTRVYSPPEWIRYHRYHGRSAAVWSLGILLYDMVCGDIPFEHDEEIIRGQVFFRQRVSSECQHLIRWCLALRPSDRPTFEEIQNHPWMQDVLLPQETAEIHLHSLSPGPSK
Pim-2, sequence (Q9P1W9 whole entry): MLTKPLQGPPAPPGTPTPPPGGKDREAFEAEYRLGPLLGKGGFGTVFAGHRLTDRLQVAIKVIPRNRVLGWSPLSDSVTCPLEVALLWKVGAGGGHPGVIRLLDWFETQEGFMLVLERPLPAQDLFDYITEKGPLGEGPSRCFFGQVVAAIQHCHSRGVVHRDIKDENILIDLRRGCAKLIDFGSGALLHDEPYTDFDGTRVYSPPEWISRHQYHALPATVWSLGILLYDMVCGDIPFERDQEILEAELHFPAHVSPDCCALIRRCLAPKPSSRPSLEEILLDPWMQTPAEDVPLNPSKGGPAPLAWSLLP

By IC50 is commonly meant the concentration needed to halve the response being measured. Regarding `CC(C)(C)Nc1nc2c(-c3cc4c([nH]3)CCNC4=O)cccc2nc1C#N` [Example 309, 3-(tert-butylamino)-5-(4-oxo-4,5,6,7-tetrahydro-1H-pyrrolo[3,2-c]pyridin-2-yl)quinoxaline-2-carbonitrile], the IC50 at Pim-1 (setting [1]) is 3.55 nM; at Pim-2 (setting [2]), 3.76 nM; in the assay on KMS-12-BM cell lines (setting [3]) it was 1160 nM.
Regarding `C[C@H](O)c1nc2cccc(-c3cc4c([nH]3)CCNC4=O)c2nc1NC(C)(C)C` [Example 310, (S)-2-(3-(tert-butylamino)-2-(1-hydroxyethyl)quinoxalin-5-yl)-6,7-dihydro-1H-pyrrolo[3,2-c]pyridin-4(5H)-one], the 50% inhibitory concentration (IC50) was 4 nM on Pim-1 (setting [1]), 3 nM at Pim-2 (setting [2]) and 344 nM in the assay on KMS-12-BM cell lines (setting [3]).
On to `C[C@@H](O)c1nc2cccc(-c3cc4c([nH]3)CCNC4=O)c2nc1NC(C)(C)C` [Example 311, (R)-2-(3-(tert-butylamino)-2-(1-hydroxyethyl)quinoxalin-5-yl)-6,7-dihydro-1H-pyrrolo[3,2-c]pyridin-4(5H)-one], for which the IC50 at Pim-1 (setting [1]) worked out at 1.98 nM; on Pim-2 (setting [2]), 1.95 nM; in the assay with KMS-12-BM cell lines (setting [3]), 151 nM.
As to `CCc1nc2cccc(-c3cc4c([nH]3)CCNC4=O)c2nc1NC(C)(C)C` [Example 312, 2-(3-(tert-butylamino)-2-ethylquinoxalin-5-yl)-6,7-dihydro-1H-pyrrolo[3,2-c]pyridin-4(5H)-one], the IC50 at Pim-1 (setting [1]) turned out to be 0.271 nM; at Pim-2 (setting [2]), 0.195 nM; with KMS-12-BM cell lines (setting [3]) it was 123 nM.
For `Cc1nc2cccc(-c3cc4c(n3C)CCNC4=O)c2nc1NC(C)(C)C` [Example 314, 2-(3-(tert-butylamino)-2-methylquinoxalin-5-yl)-1-methyl-6,7-dihydro-1H-pyrrolo[3,2-c]pyridin-4(5H)-one] the same measures were 9.48 nM, 8.58 nM and 6730 nM.
For `Cc1nc2cccc(-c3cc4c([nH]3)C(C)N(C(=O)OC(C)(C)C)C4=O)c2nc1NC(C)(C)C` (stereo not drawn) [Example 316, tert-butyl 2-(3-(tert-butylamino)-2-methylquinoxalin-5-yl)-6-methyl-4-oxo-4,6-dihydropyrrolo[3,4-b]pyrrole-5(1H)-carboxylate] the same measures were 36 nM, 75 nM and 21500 nM.
Turning to `COCCOCC(C)(C)Nc1nc2c(-c3cc4c([nH]3)CCNC4=O)cccc2nc1C` [Example 317, 2-(3-((2-(2-methoxyethoxy)-1,1-dimethylethyl)amino)-2-methyl-5-quinoxalinyl)-1,5,6,7-tetrahydro-4H-pyrrolo[3,2-c]pyridin-4-one], the IC50 was found to be 9.94 nM at Pim-1 (setting [1]), 14.7 nM on Pim-2 (setting [2]) and 1360 nM in the assay on KMS-12-BM cell lines (setting [3]).
Consider `Cc1nc2cccc(-c3cc4c([nH]3)CCNC4=O)c2nc1N1CC(S(C)(=O)=O)C1` [Example 318, 2-(2-methyl-3-(3-(methylsulfonyl)-1-azetidinyl)-5-quinoxalinyl)-1,5,6,7-tetrahydro-4H-pyrrolo[3,2-c]pyridin-4-one], for which the IC50 at Pim-1 (setting [1]) was 34.1 nM; on Pim-2 (setting [2]) it was 26.7 nM; in the assay with KMS-12-BM cell lines (setting [3]), > 40000 nM.
For `Cc1nccn1-c1cnc2cccc(-c3cc4c([nH]3)CCNC4=O)c2n1` [Example 320], in that order: 176 nM, 272 nM and > 40000 nM.
For `Cc1nc2cccc(-c3cc4c([nH]3)CCNC4=O)c2nc1NC(C)c1ccccn1` (stereo not drawn) [Example 321, 2-(2-methyl-3-((1-(pyridin-2-yl)ethyl)amino)quinoxalin-5-yl)-6,7-dihydro-1H-pyrrolo[3,2-c]pyridin-4(5H)-one], in that order: 98.6 nM, 156 nM and > 40000 nM.
Take `Cc1nc2cccc(-c3cc4c([nH]3)CCNC4=O)c2nc1NC(C)c1cnccn1` (stereo not drawn) [Example 322, 2-(2-methyl-3-((1-(pyrazin-2-yl)ethyl)amino)quinoxalin-5-yl)-6,7-dihydro-1H-pyrrolo[3,2-c]pyridin-4(5H)-one]: the half-inhibitory concentration (IC50) at Pim-1 (setting [1]) was 94.6 nM; on Pim-2 (setting [2]) it was 163 nM; in the assay on KMS-12-BM cell lines (setting [3]), > 40000 nM.
For the compound `Cc1nc2cccc(-c3cc4c([nH]3)CCNC4=O)c2nc1NC(C)c1ccncn1` (stereo not drawn) [Example 323, 2-(2-methyl-3-((1-(pyrimidin-4-yl)ethyl)amino)quinoxalin-5-yl)-6,7-dihydro-1H-pyrrolo[3,2-c]pyridin-4(5H)-one], the IC50 on Pim-1 (setting [1]) is 83.8 nM; at Pim-2 (setting [2]), 62.7 nM; in the assay with KMS-12-BM cell lines (setting [3]), > 20000 nM.
Turning to `Cc1nc2cccc(-c3cc4c([nH]3)C3(CC3)NC4=O)c2nc1NC(C)(C)C` [Example 324, 2′-(3-(tert-butylamino)-2-methyl-5-quinoxalinyl)-1′H-spiro[cyclopropane-1,6′-pyrrolo[3,4-b]pyrrol]-4′(5′H)-one], the results for the 50% inhibitory concentration (IC50) on Pim-1 (setting [1]), on Pim-2 and with KMS-12-BM cell lines (setting [3]) were 0.139 nM, 0.223 nM and 91.7 nM, respectively.
Turning to `Cc1nc2cccc(-c3cc4c([nH]3)C3(CC3)NC4=O)c2nc1NC1CC1` [Example 325, 2′-(3-(cyclopropylamino)-2-methyl-5-quinoxalinyl)-1′H-spiro[cyclopropane-1,6′-pyrrolo[3,4-b]pyrrol]-4′(5′H)-one], the results for the IC50 on Pim-1, at Pim-2 (setting [2]) and in the assay with KMS-12-BM cell lines (KMS-12-BM) were 0.293 nM, 0.242 nM and 68.8 nM, respectively.
On to `Cc1nc2cccc(-c3cc4c([nH]3)[C@H](C)NC4=O)c2nc1NC1(C)CC1` [Example 328, (6S)-6-methyl-2-(2-methyl-3-((1-methylcyclopropyl)amino)-5-quinoxalinyl)-5,6-dihydropyrrolo[3,4-b]pyrrol-4(1H)-one], for which the 50% inhibitory concentration (IC50) at Pim-1 (setting [1]) is 0.195 nM; at Pim-2 (setting [2]) it was 0.201 nM; in the assay with KMS-12-BM cell lines (setting [3]), 46 nM.
Regarding `Cc1nc2cccc(-c3cc4c([nH]3)C3(CC3)NC4=O)c2nc1NC1(C)CC1` [Example 329, 2′-(2-methyl-3-((1-methylcyclopropyl)amino)-5-quinoxalinyl)-1′H-spiro[cyclopropane-1,6′-pyrrolo[3,4-b]pyrrol]-4′(5′H)-one], the results for the 50% inhibitory concentration (IC50) at Pim-1, on Pim-2 and in the assay on KMS-12-BM cell lines (setting [3]) were 0.334 nM, 0.39 nM and 26.2 nM, respectively.
As to `Cc1nc2ccc(F)c(-c3cc4c([nH]3)C3(CC3)NC4=O)c2nc1NC(C)C` [Example 330, 2′-(6-Fluoro-3-(isopropylamino)-2-methylquinoxalin-5-yl)-1′H-spiro[cyclopropane-1,6′-pyrrolo[3,4-b]pyrrol]-4′(5′H)-one], the concentration for half-maximal inhibition (IC50) on Pim-1 (setting [1]) is 0.724 nM; at Pim-2 (setting [2]), 1.17 nM; in the assay on KMS-12-BM cell lines (setting [3]) it was 85.6 nM.
For `Cc1nc2cccc(-c3cc4c([nH]3)C3(CC3)NC4=O)c2nc1NCC(F)F` [Example 331, 2′-(3-((2,2-difluoroethyl)amino)-2-methylquinoxalin-5-yl)-1′H-spiro[cyclopropane-1,6′-pyrrolo[3,4-b]pyrrol]-4′(5′H)-one], in that order: 1.67 nM, 1.12 nM and 130 nM.
For `Cc1nc2cccc(-c3cc4c([nH]3)[C@@H](C)NC4=O)c2nc1NC1(C)CC1` [Example 333, (6R)-6-methyl-2-(2-methyl-3-((1-methylcyclopropyl)amino)-5-quinoxalinyl)-5,6-dihydropyrrolo[3,4-b]pyrrol-4(1H)-one], in that order: 0.185 nM, 0.183 nM and 8.42 nM.
